Experimental findings from PMC7616463, “Peptidic boronic acid Plasmodium falciparum SUB1 inhibitors with improved selectivity over human proteasome” (Journal of medicinal chemistry, 2024) are described below.

As usually defined, the IC50 is the midpoint of a concentration-inhibition curve.

The target of the first assay is T1, recombinant PfSUB1 (rPfSUB1) (Plasmodium falciparum, UniProt Q8I0V0).
T1 construct: made in house
T1 sequence (Q8I0V0 218-688): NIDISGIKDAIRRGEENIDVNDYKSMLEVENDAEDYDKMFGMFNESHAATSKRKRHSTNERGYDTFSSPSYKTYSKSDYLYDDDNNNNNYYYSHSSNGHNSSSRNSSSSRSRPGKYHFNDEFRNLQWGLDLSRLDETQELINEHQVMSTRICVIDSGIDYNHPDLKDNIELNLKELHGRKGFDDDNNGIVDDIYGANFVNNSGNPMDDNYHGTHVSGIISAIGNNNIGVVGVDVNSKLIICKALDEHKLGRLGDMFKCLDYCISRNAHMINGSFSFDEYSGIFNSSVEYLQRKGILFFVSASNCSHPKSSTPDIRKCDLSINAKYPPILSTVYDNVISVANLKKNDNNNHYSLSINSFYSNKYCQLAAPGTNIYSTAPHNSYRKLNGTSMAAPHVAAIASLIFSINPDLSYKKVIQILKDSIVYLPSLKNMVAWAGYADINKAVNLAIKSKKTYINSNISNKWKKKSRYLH
Nature of the assay: PfSUB1 enzyme assay (recombinant PfSUB1, fluorogenic peptide substrate). It is filed as biochemical. The following applies: 1 μM final concentration; typical of duplicate assays. On the procedure:
The proteolytic activity of rPfSUB1 was monitored by the cleavage of the fluorogenic peptidic substrate SERA4st1F-6R12 (Ac-[…]-OH) and has been described previously.[28] Briefly, chymotrypsin treated rPfSUB1 (expressed and purified as described before […] was stored at −80 °C as a 228 U/mL stock in 20 mM Tris−HCl pH 8.2, 150 mM NaCl, 10% glycerol, and diluted for use (1:500) in reaction buffer (20 mM Tris−HCl pH 8.2, 150 mM NaCl, 12 mM CaCl2, 25 mM CHAPS). Peptidic boronic acid inhibitors were dissolved in 100% DMSO at 20 mM, then further diluted in DMSO to generate stock solutions ranging from 500 to 0.01 μM and then used diluted 1:100 in the enzyme reactions. All reactions were performed in wells of white 96-well microwell plates (Nunc); 50 μL diluted rPfSUB1 was preincubated for 5 min with 1 μL each of the serially diluted boronic acid inhibitors, followed by addition of 50 μL substrate solution (0.1 μM final). Subsequent fluorescence increase was continuously monitored using a SpectraMax M5e plate reader and SoftMax Pro-6.3 software, with readings taken every 3 min for 60 min using excitation and emission values of 552 and 580 nm, respectively. […] All experiments were performed in duplicate.
For the compound `CC(C)C[C@H](NC(=O)[C@H](Cc1ccccc1)NC(=O)c1cnccn1)B(O)O` [5a, bortezomib, reference compound], the “inhibition of rPfSUB1 activity at 1 μM” value is “Non inhibitory^b”.
Same read-out and setting: under `CC(C)C[C@H](NC(=O)CNC(=O)c1cc(Cl)ccc1Cl)B(O)O` [ixazomib, reference compound] stands “lack of inhibition”.

Staying with this assay, now noted: 1 μM final concentration; typical of duplicate assays; listed as bortezomib.
Consider `CC(C)C[C@H](NC(=O)[C@H](Cc1ccccc1)NC(=O)c1cnccn1)B(O)O` [5a, bortezomib, reference compound], for which the “inhibition of rPfSUB1 activity at 1 μM” value was “lack of inhibition”.

Still in this assay, the particulars now being: rPfSUB1, substrate SERA4st1F-6R12 0.1 μM, 5 min preincubation, pH 8.2, fluorescence; duplicate; read-out: IC50, nM PfSUB1 inhibition.
As to `CC(=O)N[C@H](C(=O)N[C@@H](CC(C)C)C(=O)NCC(=O)N[C@@H](C)B(O)O)C1CCCC1` [2g, ((2R,8S,11S)-11-cyclopentyl-8-isobutyl-4,7,10,13-tetraoxo-3,6,9,12-tetraazatetra-decan-2-yl)boronic acid], the IC50 stood at 7.8 ± 0.1 nM.
With `CC(=O)N[C@H](C(=O)N[C@H](C(=O)NCC(=O)N[C@@H](C)B(O)O)C(C)(C)C)C1CCCC1` [2a, ((2R,8S,11S)-8-(tert-butyl)-11-cyclopentyl-4,7,10,13-tetraoxo-3,6,9,12-tetraazatetradecan-2-yl)boronic acid], the IC50 was determined as 2.1 ± 0.1 nM.
The same measure, in the same setting: under `CC(=O)N[C@H](C(=O)N[C@@H](CC1CCCC1)C(=O)NCC(=O)N[C@@H](C)B(O)O)C1CCCC1` [2c, ((2R,8S,11S)-11-cyclopentyl-8-(cyclopentylmethyl)-4,7,10,13-tetraoxo-3,6,9,12-tetra-azatetradecan-2-yl)boronic acid] stands 7.5 ± 0.8 nM.
Take `CC(=O)N[C@H](C(=O)N[C@H](C(=O)NCC(=O)N[C@@H](C)B(O)O)c1ccccc1)C1CCCC1` [2b, ((2R,8S,11S)-11-cyclopentyl-4,7,10,13-tetraoxo-8-phenyl-3,6,9,12-tetraazatetradecan-2-yl)boronic acid]: the IC50 was determined as 2.8 ± 0.1 nM.
Same read-out and setting: then “((3S,6S,12R)-6-((S)-sec-butyl)-3-cyclopentyl-1-(3,5-dimethylphenyl)-1,4,7,10-tetra-oxo-2,5,8,11-tetraazatridecan-12-yl)boronic acid [3d]”, with 3.2 ± 0.1 nM; and `CC[C@H](C)[C@H](NC(=O)[C@@H](NC(=O)c1cc(C)cc(C)c1)C1CCCC1)C(=O)NCC(=O)N[C@@H](C)B(O)O` [3c, ((3S,6S,12R)-6-((S)-sec-butyl)-3-cyclopentyl-1-(3,5-dimethylphenyl)-1,4,7,10-tetra-oxo-2,5,8,11-tetraazatridecan-12-yl)boronic acid], with 6.9 ± 0.3 nM.
On the same count and under the same terms, under `CC[C@H](C)[C@H](NC(=O)[C@@H](NC(=O)C1CCC1)C1CCCC1)C(=O)NCC(=O)N[C@@H](C)B(O)O` [3g, ((3S,6S,12R)-6-((S)-sec-butyl)-1-cyclobutyl-3-cyclopentyl-1,4,7,10-tetraoxo-2,5,8,11-tetraazatridecan-12-yl)boronic acid] stands 2 ± 0.1 nM; under `CC(=O)N[C@H](C(=O)N[C@@H](CC(C)(C)C)C(=O)NCC(=O)N[C@@H](C)B(O)O)C1CCCC1` [2e, ((2R,8S,11S)-11-cyclopentyl-8-neopentyl-4,7,10,13-tetraoxo-3,6,9,12-tetraazatetra-decan-2-yl)boronic acid], 43.5 ± 2.7 nM; under `CC[C@H](C)[C@H](NC(=O)[C@@H](NC(=O)C(C)C)C1CCCC1)C(=O)NCC(=O)N[C@@H](C)B(O)O` [3e, ((2R,8S,11S)-8-((S)-sec-butyl)-11-cyclopentyl-14-methyl-4,7,10,13-tetraoxo-3,6,9,12-tetraazapentadecan-2-yl)boronic acid], 3.9 ± 0.3 nM.
On the same count and under the same terms, under `CC[C@H](C)[C@H](NC(=O)[C@@H](NS(=O)(=O)c1nccs1)C1CCCC1)C(=O)NCC(=O)N[C@@H](C)B(O)O` [3h, ((R)-1-(2-((2S,3S)-2-((S)-2-cyclopentyl-2-(thiazole-2-sulfonamido)acetamido)-3-methylpentanamido)acetamido)ethyl)boronic acid] stands 3.4 ± 0.3 nM.
Take `CC(=O)N[C@H](C(=O)N[C@@H](Cc1ccccc1)C(=O)NCC(=O)N[C@@H](C)B(O)O)C1CCCC1` [2h, ((2R,8S,11S)-8-benzyl-11-cyclopentyl-4,7,10,13-tetraoxo-3,6,9,12-tetraazatetradecan-2-yl)boronic acid]: the IC50 was determined as 6.9 ± 2.6 nM.

Staying with this assay, now noted: rPfSUB1 IC50 vs 2a.
As for `CC(=O)N[C@H](C(=O)N[C@@H](CC(C)(C)C)C(=O)NCC(=O)N[C@@H](C)B(O)O)C1CCCC1` [2e, ((2R,8S,11S)-11-cyclopentyl-8-neopentyl-4,7,10,13-tetraoxo-3,6,9,12-tetraazatetra-decan-2-yl)boronic acid], the “fold decreased PfSUB1 potency compared to homologue 2a” value is reported as ~ 20 fold.
